According to US11541050B2, “Pyrimidine derivatives for the treatment of viral infections” (JANSSEN SCIENCES IRELAND UC, priority 2011, dated 2023):

Key:
Assay type in all cases: cell-based
Design in all cases: unit not given here
[1] = tested on: human TLR7 mutant sequence comprising a deletion in the second leucine-rich repeat; assay: TLR7 cellular NFκB-luc reporter assay, mutant TLR7 with deletion in the second leucine-rich repeat; details: lowest effective concentration
Experimental: (§1) The ability of compounds to activate human TLR7 and/or TLR8 was assessed in a cellular reporter assay using HEK293 cells transiently transfected with a TLR7 or TLR8 expression vector and NFκB-luc reporter construct. In one instance the TLR expression construct expresses the respective wild type sequence or a mutant sequence comprising a deletion in the second leucine-rich repeat of the TLR.
(§2) Briefly, HEK293 cells were grown in culture medium (DMEM supplemented with 10% FCS and 2 mM Glutamine). For transfection of cells in 10 cm dishes, cells were detached with Trypsin-EDTA, transfected with a mix of CMV-TLR7 or TLR8 plasmid (750 ng), NFκB-luc plasmid (375 ng) and a transfection reagent and incubated for 48 hours at 37° C. in a humidified 5% CO2 atmosphere. […] Thirty microliters of cells were then dispensed into each well in 384-well plates, where 10 μL of compound in 4% DMSO was already present. Following 6 hours incubation at 37° C., 5% CO2, the luciferase activity was determined by adding 15 μl of Steady Lite Plus substrate (Perkin Elmer) to each well and readout performed on a ViewLux ultraHTS microplate imager (Perkin Elmer). Dose response curves were generated from measurements performed in quadruplicates.

[2] = biological target: T1, human TLR7 (wild type sequence) (Homo sapiens, UniProt Q9NYK1); assay: TLR7 cellular NFκB-luc reporter assay, wild type TLR7; details: lowest effective concentration, wild type TLR7
T1 construct: expressed in transfected cells; host or cells: HEK293
T1 sequence (Q9NYK1 27-1049): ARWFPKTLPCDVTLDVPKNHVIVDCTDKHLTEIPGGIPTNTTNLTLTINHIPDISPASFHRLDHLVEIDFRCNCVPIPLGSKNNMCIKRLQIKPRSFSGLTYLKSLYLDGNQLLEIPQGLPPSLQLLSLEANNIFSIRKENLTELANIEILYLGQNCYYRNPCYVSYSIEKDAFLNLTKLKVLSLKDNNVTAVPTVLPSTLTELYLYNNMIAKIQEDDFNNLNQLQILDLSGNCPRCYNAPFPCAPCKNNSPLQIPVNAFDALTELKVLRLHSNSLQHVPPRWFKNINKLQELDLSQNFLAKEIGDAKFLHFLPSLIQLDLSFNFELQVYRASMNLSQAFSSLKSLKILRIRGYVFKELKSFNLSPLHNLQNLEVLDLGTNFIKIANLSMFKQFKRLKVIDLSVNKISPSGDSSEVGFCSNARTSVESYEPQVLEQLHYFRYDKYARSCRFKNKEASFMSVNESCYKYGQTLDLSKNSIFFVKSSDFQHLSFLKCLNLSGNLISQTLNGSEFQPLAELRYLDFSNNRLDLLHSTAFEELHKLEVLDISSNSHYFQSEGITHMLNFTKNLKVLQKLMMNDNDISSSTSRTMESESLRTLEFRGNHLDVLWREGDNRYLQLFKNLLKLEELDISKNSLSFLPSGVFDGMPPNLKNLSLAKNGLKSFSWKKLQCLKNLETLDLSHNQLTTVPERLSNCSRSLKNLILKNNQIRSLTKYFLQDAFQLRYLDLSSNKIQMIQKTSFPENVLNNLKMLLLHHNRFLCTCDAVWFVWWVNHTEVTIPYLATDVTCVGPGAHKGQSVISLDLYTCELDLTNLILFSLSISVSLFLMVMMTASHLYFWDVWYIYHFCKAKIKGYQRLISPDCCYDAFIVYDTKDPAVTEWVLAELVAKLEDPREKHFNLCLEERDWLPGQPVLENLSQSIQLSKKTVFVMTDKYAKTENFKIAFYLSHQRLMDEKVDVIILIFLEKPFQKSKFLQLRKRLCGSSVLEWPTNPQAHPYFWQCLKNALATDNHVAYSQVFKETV
Summary of the method: (§3)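 Luciferase signal read after 6 h compound incubation at 37 °C in HEK293 cells carrying transiently transfected TLR7 or TLR8 (wild type or LRR2-deletion) and NFκB-luc. Values are lowest effective concentrations from quadruplicate dose-response curves, effect ≥2-fold above assay SD.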

[3] = biological target: T2, human TLR8 (wild type sequence) (Homo sapiens, UniProt Q9NR97); assay: TLR8 cellular NFκB-luc reporter assay, wild type TLR8; details: lowest effective concentration
T2 construct: expressed in transfected cells; host or cells: HEK293
T2 sequence (Q9NR97 27-1041): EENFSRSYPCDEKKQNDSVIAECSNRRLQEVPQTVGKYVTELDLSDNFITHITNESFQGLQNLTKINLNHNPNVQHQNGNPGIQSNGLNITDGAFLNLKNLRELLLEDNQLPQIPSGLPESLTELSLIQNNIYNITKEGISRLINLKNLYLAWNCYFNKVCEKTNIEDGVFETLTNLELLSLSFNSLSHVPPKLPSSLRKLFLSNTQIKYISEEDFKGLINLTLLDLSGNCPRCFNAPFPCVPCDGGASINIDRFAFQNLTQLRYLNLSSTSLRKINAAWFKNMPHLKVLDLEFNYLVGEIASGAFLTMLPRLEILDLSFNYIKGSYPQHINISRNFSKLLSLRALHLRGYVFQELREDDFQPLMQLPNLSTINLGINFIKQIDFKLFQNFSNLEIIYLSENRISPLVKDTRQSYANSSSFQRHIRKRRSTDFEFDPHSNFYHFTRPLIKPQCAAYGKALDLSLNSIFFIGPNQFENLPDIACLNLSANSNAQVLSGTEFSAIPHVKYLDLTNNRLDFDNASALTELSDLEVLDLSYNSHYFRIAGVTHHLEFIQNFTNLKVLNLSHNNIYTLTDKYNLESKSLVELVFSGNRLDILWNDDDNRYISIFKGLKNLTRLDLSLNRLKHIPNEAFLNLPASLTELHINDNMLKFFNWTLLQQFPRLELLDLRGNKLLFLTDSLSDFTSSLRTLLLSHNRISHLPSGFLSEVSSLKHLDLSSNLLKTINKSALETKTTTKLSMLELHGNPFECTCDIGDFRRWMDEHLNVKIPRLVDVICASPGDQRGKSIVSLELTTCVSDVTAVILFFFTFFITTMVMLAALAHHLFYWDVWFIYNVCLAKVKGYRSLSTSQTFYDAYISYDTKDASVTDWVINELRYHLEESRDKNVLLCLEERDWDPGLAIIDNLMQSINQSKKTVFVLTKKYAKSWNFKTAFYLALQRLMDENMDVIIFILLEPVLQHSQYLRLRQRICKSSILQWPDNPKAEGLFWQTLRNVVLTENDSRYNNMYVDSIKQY
Summary of the method: as §3

[4] = tested on: human TLR8 mutant sequence comprising a deletion in the second leucine-rich repeat; assay: TLR8 cellular NFκB-luc reporter assay, mutant TLR8 with deletion in the second leucine-rich repeat; details: lowest effective concentration
Experimental: as §1, §2

| SMILES | TLR7-dIRR2_LEC [1] | TLR7-wt_LEC [2] | TLR8-wt_LEC [3] | TLR8-dIRR2_LEC [4] |
| --- | --- | --- | --- | --- |
| CCCC[C@@H](CCO)Nc1nc(N)ncc1OCc1nccc2ccccc12 [Compound 208] | 0.093 | 0.001 | – | – |
| CCCCNc1nc(N)ncc1OCc1cn2ccccc2n1 [Compound 209] | 0.667 | 0.074 | 0.076 | – |
| CCCCNc1nc(N)ncc1OCc1ccc(C#N)cc1 [Compound 210] | 0.896 | 0.686 | 0.237 | – |
| CCCCNc1nc(N)ncc1OCc1cn2ccncc2n1 [Compound 211] | 1.040 | 0.208 | 0.097 | – |
| CCC[C@H](C)Nc1nc(N)ncc1OCc1nccc2ccccc12 [Compound 212] | 0.148 | 0.007 | 0.005 | – |
| CCCCNc1nc(N)ncc1OCc1ncccc1F [Compound 213] | 0.207 | 0.225 | – | 0.032 |
| CCC[C@@H](CO)Nc1nc(N)ncc1OCc1nccc(OC)c1OC [Compound 214] | 0.593 | 0.134 | – | 0.027 |
| CCC[C@@H](CO)Nc1nc(N)ncc1OCc1cn2ccccc2n1 [Compound 215] | 0.300 | 0.171 | – | 0.029 |
| CCCC[C@@H](CO)Nc1nc(N)ncc1OCc1nccc2ccccc12 [Compound 216] | 0.111 | 0.008 | – | 0.002 |
| CCCC[C@@H](CO)Nc1nc(N)ncc1OCc1nccc(OC)c1OC [Compound 217] | 0.433 | 0.106 | – | 0.007 |
| CCCC[C@@H](CO)Nc1nc(N)ncc1OCc1cn2ccccc2n1 [Compound 218] | 0.352 | 0.154 | – | 0.032 |
| CCC[C@@H](C)Nc1nc(N)ncc1OCc1nccc2ccccc12 [Compound 219] | 1.640 | 0.125 | – | 0.029 |
| CCCCNc1nc(N)ncc1OCCCC(=O)OC [Compound 220] | 1.450 | 1.940 | – | 1.720 |
| CCCCNc1nc(N)ncc1OCCCC(=O)OC(C)C [Compound 221] | 0.859 | 0.654 | – | 0.496 |
| CCCC[C@@H](CCO)Nc1nc(N)ncc1OCc1cc2ccccc2cn1 [Compound 223] | 1.400 | 0.100 | – | 0.033 |
| C=CC[C@H](CCCC)Nc1nc(N)ncc1OC [Compound 292] | 3.082 | 0.913 | – | – |
